Assay results: patent US20070293518A1, “PROLONGED IMPROVEMENT OF RENAL FUNCTION COMPRISING INFREQUENT ADMINISTRATION OF AN AA1RA” (priority 2006, published 2007)
Where “and” joins values, the source holds several entries; their conditions need not be identical. Identical values can stand only once. Like-named read-outs stand apart in the source and are kept apart here. Marks after values point to notes of the source that are not given here.

Tests used:
[1] = tested on: subjects with congestive heart failure refractory to standard diuretic therapy; assay: Double-blind placebo-controlled study in CHF patients refractory to standard diuretic therapy: creatinine clearance; format: in vivo, human; details: 30 mg intravenous infusion with current diuretic therapy; 0-24 hours; FIG. 4
Protocol: A double-blind placebo-controlled study was conducted as follows: 35 subjects with congestive heart failure that were refractory to standard diuretic therapy were identified. […] The patients' diuretic therapy was stopped at least 5 hours before prior to the treatment. Staring at −3 hours, urine was collected for volume and creatinine clearance measurements. […] Blood and urine samples were colleted at 0, 3, 6, 9, 12 and 24 hours following study drug administration.

[2] = tested on: subjects hospitalized due to acute CHF requiring intravenous diuretic therapy; assay: Study in subjects hospitalized due to acute CHF requiring intravenous diuretic therapy: serum creatinine, worsening renal function; format: in vivo, human
Protocol: More than 300 subjects hospitalized due to acute CHF requiring intravenous diuretic therapy to treat fluid overload, and presenting with creatinine clearance values between 20 to 80 mL/min were identified. The subjects were randomized to receive either placebo, or 10 mg, 20 mg or 30 mg intravenous KW-3902 per day. The subjects' BNP levels, NT-Pro-BNP, serum creatinine, weight, and NYHA Class were measured.
On day 1, KW-3902 (or placebo) was co-administered with intravenous furosemide (LASIX™). The specified dose of KW-3902 (or placebo) was infused over a four hour time period. Subjects received therapy for up to three days, as required. Serum creatinine, weight, dyspnea, and worsening heart failure were assessed daily by the investigator on days 1 through 14. Worsening renal function was defined as a ≧0.3 mg/dL increase in serum creatinine.
A subgroup of subjects received a single dose of KW-3902 and LASIX or a single dose of placebo and LASIX.

[3] = tested on: patients with CHF and renal impairment; assay: Double-blind placebo-controlled study in CHF patients with acute fluid overload and renal impairment: sustained worsening renal function; format: in vivo, human; details: 2.5, 15, 30 or 60 mg IV days 1 through 3; FIG. 6
Protocol: Worsening renal function was defined as a ≧0.3 mg/dL increase in serum creatinine.

[4] = Pharmacokinetic study of KW-3902, single intravenous dose, serum concentrations; format: in vivo; details: human; for clearance: read-out: CL∞ Mean (converted); for half-life: read-out: T1/2 Mean (converted); for Tmax: read-out: Tmax Median; for Vd: read-out: Vss∞ Mean
Protocol: Individuals received a single intravenous dose of 1 mg, 2.5 mg. 5 mg, 10 mg, 20 mg, 30 mg 40 mg, 50 mg or 60 mg KW-3902 as indicated. The serum concentrations of KW-3902 and its M1-trans metabolite were measured using routine analytical methods. Routine mathematical formulae were used to determine pharmacokinetic values.

[5] = tested on: heart failure patients with renal impairment who are treated with diuretics; assay: Double-blind cross-over study in stable CHF: GFR, RPF, urine volume; format: in vivo, human; details: for GFR % Difference Between KW-3902 and Placebo / GFR Percent Change from Baseline / RPF % Difference Between KW-3902 and Placebo / RPF Percent Change from Baseline: 30 mg KW-3902 IV plus 80 mg IV furosemide
Protocol: A double-blind, multi-center, cross-over designed, controlled study was conducted as follows: Approximately 23 outpatient subjects were randomized. […] Subjects received at least two treatments that were at least three days apart, with a median interval between treatments of 6 days. […] Patients that received KW-3902 on the first visit received placebo on the second visit, and vice versa. Infusions of lothalamate ([…]) and para-aminohippurate were administered according to standard protocols to assess glomerular filtration rate (GFR) and renal plasma flow (RPF), respectively. Iothalamate and para-aminohippurate were administered over 180 minutes before treatment with KW-3902/placebo and 8 hours after treatment with KW-3902/placebo. Urine and plasma were collected for GFR and RPF at baseline and 2, 4, and 8 hours. The mean GFR at baseline was 61 mL/min.

[6] = serum, individual subjects of subgroup, single dose of KW-3902 and LASIX
[7] = 1 mg, single intravenous dose 1 mg, Group 1, serum
[8] = 2.5 mg, single intravenous dose 2.5 mg, Group 1 (n = 4)
[9] = 2.5 mg, single intravenous dose 2.5 mg, Group 2 (n = 8)
[10] = 5 mg, single intravenous dose 5 mg, Group 2, serum
[11] = 10 mg, single intravenous dose 10 mg, Group 2, serum
[12] = 20 mg, single intravenous dose 20 mg, Group 3, serum
[13] = 30 mg, single intravenous dose 30 mg, Group 3, serum
[14] = 40 mg, single intravenous dose 40 mg, Group 4, serum
[15] = 50 mg, single intravenous dose 50 mg, Group 4, serum
[16] = 60 mg, single intravenous dose 60 mg, Group 4, serum

## CCCn1c(=O)c2[nH]c(C34CC5CC(CC3C5)C4)nc2n(CCC)c1=O [KW-3902, 8-(3-noradamantyl)-1,3-dipropylxanthine]
[1]
  Change in creatinine clearance from baseline (in words): improvement in renal function over time
[2]; 30 mg per day IV up to three days, Day 14, FIG. 8
  Change in mean serum creatinine levels (in words): overall decrease in serum creatinine levels
[2]; days 2, 3, 4, 5, 6, and 7, FIG. 7
  Increase in the percentage of individuals with worsening renal failure, compared to placebo: lower
[2]; serum, Day 14 vs Day 1, individual subjects of subgroup, single dose of KW-3902 and LASIX
  Δ Creatinine: −0.5 mg/dL and 0 mg/dL (2×) and 0.2 mg/dL and −0.2 mg/dL and −0.1 mg/dL
[2]; [6]
  Day 1 Creatinine: 1.7 mg/dL and 1.4 mg/dL and 1.15 mg/dL and 2.9 mg/dL and 1.6 mg/dL and 3.2 mg/dL and 1.0 mg/dL
  Day 14 Creatinine: 1.2 mg/dL and 1.4 mg/dL and 1.3 mg/dL and 2.7 mg/dL (2×) and 1.0 mg/dL
[2]; single dose subgroup (30 mg KW-3902), Day 14
  Mean change in serum creatinine levels (in words): mean decrease in serum creatinine levels
[3]
  Sustained worsening renal function (≧0.3 mg/dL increase in serum creatinine), in words: improves renal function
[4]; [7]
  AUC(0-inf): 31.5 ng·h/mL
  Cmax: 12.9 ng/mL
  MRT inf: 2.6 h
  clearance: 610 mL/min
  half-life: 168 min
  Tmax: 30 min
  Vd: 58.9 L
[4]; [8]
  AUC(0-inf): 97.6 ng·h/mL
  Cmax: 35.6 ng/mL
  MRT inf: 8.1 h
  clearance: 443 mL/min
  half-life: 684 min
  Tmax: 72 min
  Vd: 185 L
[4]; [9]
  AUC(0-inf): 84 ng·h/mL
  Cmax: 35.9 ng/mL
  MRT inf: 4.7 h
  clearance: 518 mL/min
  half-life: 438 min
  Tmax: 30 min
  Vd: 117 L
[4]; [10]
  AUC(0-inf): 221 ng·h/mL
  Cmax: 90.9 ng/mL
  MRT inf: 5.8 h
  clearance: 435 mL/min
  half-life: 576 min
  Tmax: 30 min
  Vd: 106 L
[4]; [11]
  AUC(0-inf): 496 ng·h/mL
  Cmax: 186 ng/mL
  MRT inf: 8.7 h
  clearance: 350 mL/min
  half-life: 864 min
  Tmax: 30 min
  Vd: 161 L
[4]; [12]
  AUC(0-inf): 898 ng·h/mL
  Cmax: 294 ng/mL
  MRT inf: 11.5 h
  clearance: 390 mL/min
  half-life: 1080 min
  Tmax: 72 min
  Vd: 244 L
[4]; [13]
  AUC(0-inf): 1190 ng·h/mL
  Cmax: 457 ng/mL
  MRT inf: 7.7 h
  clearance: 455 mL/min
  half-life: 882 min
  Tmax: 36 min
  Vd: 189 L
[4]; [14]
  AUC(0-inf): 1870 ng·h/mL
  Cmax: 452 ng/mL
  MRT inf: 9.4 h
  clearance: 372 mL/min
  half-life: 966 min
  Tmax: 132 min
  Vd: 178 L
[4]; [15]
  AUC(0-inf): 2120 ng·h/mL
  Cmax: 579 ng/mL
  MRT inf: 7.9 h
  clearance: 427 mL/min
  half-life: 930 min
  Tmax: 96 min
  Vd: 166 L
[4]; [16]
  AUC(0-inf): 2720 ng·h/mL
  Cmax: 682 ng/mL
  MRT inf: 9.2 h
  clearance: 378 mL/min
  half-life: 984 min
  Tmax: 132 min
  Vd: 176 L
[5]; 0-2 hours
  GFR % Difference Between KW-3902 and Placebo: 27.3* %
  GFR Percent Change from Baseline: 22.1* Percent
  RPF % Difference Between KW-3902 and Placebo: 27.7* %
  RPF Percent Change from Baseline: 33.3* Percent
[5]; 0-8 hours
  GFR % Difference Between KW-3902 and Placebo: 23.4* %
  GFR Percent Change from Baseline: 32.1* Percent
  RPF % Difference Between KW-3902 and Placebo: 24.9* %
  RPF Percent Change from Baseline: 47.7** Percent
[5]; 2-4 hours
  GFR % Difference Between KW-3902 and Placebo: 7.6%
  GFR Percent Change from Baseline: 8.5%
  RPF % Difference Between KW-3902 and Placebo: 12.7%
  RPF Percent Change from Baseline: 41.7%
[5]; 4-8 hours
  GFR % Difference Between KW-3902 and Placebo: 30.1* %
  GFR Percent Change from Baseline: 41.3* Percent
  RPF % Difference Between KW-3902 and Placebo: 30.0* %
  RPF Percent Change from Baseline: 55.8* Percent
[5]; FIG. 2
  Effect on GFR (in words): statistically significant increase
[5]; FIG. 3
  Effect on renal plasma flow (in words): statistically significant increase
[5]; KW-3902 plus furosemide
  Urine volume over 8 hours: 2995.1 ± 1138.17 mL
[5]; subgroup that received KW-3902 on the first visit, follow-up baseline (median 6 days), FIG. 5
  Persistence of the increase in GFR noted at 8 hours: persisted at the time of follow-up baseline
